Test results from PubChem BioAssay AID1918995 (Molecular Pharmacology Branch, DTP, NCI, 2023).

Tested on: 324938-238-R-J1-PDC complex spheroid growth, % test/control
Experiment: Anticancer human tumor 324938-238-R-J1-PDC patient-derived bladder carcinoma cell line growth inhibition [AhR]
Conditions: for IC50: curve of first compound; for viability, T/C: stronger effect = lower value
Summary of the method: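 Complex tumor spheroids co-cultured with HUVEC and human MSC stroma; AhR antagonists tested in combination with standard-of-care and investigational agents. Top concentration at or near clinical Cmax (else 10 microM), half-log dilutions; growth expressed as percent test/control.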

[1] = second compound 0.1 µM, first compound 0.0316 µM
[2] = second compound 0.1 µM, first compound 0.1 µM
[3] = second compound 0.1 µM, first compound 0.316 µM
[4] = second compound 0.1 µM, first compound 1 µM
[5] = second compound 0.1 µM, first compound 3.16 µM
[6] = second compound 0.1 µM, first compound 10 µM
[7] = second compound 0.316 µM, first compound 0.0316 µM
[8] = second compound 0.316 µM, first compound 0.1 µM
[9] = second compound 0.316 µM, first compound 0.316 µM
[10] = second compound 0.316 µM, first compound 1 µM
[11] = second compound 0.316 µM, first compound 3.16 µM
[12] = second compound 0.316 µM, first compound 10 µM
[13] = second compound 1 µM, first compound 0.0316 µM
[14] = second compound 1 µM, first compound 0.1 µM
[15] = second compound 1 µM, first compound 0.316 µM
[16] = second compound 1 µM, first compound 1 µM
[17] = second compound 1 µM, first compound 3.16 µM
[18] = second compound 1 µM, first compound 10 µM
[19] = second compound 3.16 µM, first compound 0.0316 µM
[20] = second compound 3.16 µM, first compound 0.1 µM
[21] = second compound 3.16 µM, first compound 0.316 µM
[22] = second compound 3.16 µM, first compound 1 µM
[23] = second compound 3.16 µM, first compound 3.16 µM
[24] = second compound 3.16 µM, first compound 10 µM
[25] = second compound 10 µM, first compound 0.0316 µM
[26] = second compound 10 µM, first compound 0.1 µM
[27] = second compound 10 µM, first compound 0.316 µM
[28] = second compound 10 µM, first compound 1 µM
[29] = second compound 10 µM, first compound 3.16 µM
[30] = second compound 10 µM, first compound 10 µM
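Further: spheroids exposed to agents for seven days before viability read.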

SMILES: CC(C)c1c(-c2ccccc2)nc2c(C#N)c[nH]n2c1=O + CC(CO)NC(=O)c1cc(-c2ccc(Cl)cc2)nn(-c2cnn(C)c2)c1=O
- IC50 (second compound 0.1 µM): > 10000 nM
- IC50 (second compound 0.316 µM): > 10000 nM
- IC50 (second compound 1 µM): > 10000 nM
- IC50 (second compound 3.16 µM): > 10000 nM
- IC50 (second compound 10 µM): > 10000 nM
- viability, T/C [1]: 110%
- viability, T/C [2]: 115%
- viability, T/C [3]: 88.1%
- viability, T/C [4]: 87.2%
- viability, T/C [5]: 92.5%
- viability, T/C [6]: 88%
- viability, T/C [7]: 94.7%
- viability, T/C [8]: 98.9%
- viability, T/C [9]: 92.8%
- viability, T/C [10]: 78.8%
- viability, T/C [11]: 88.5%
- viability, T/C [12]: 81.2%
- viability, T/C [13]: 87.5%
- viability, T/C [14]: 88.1%
- viability, T/C [15]: 87.4%
- viability, T/C [16]: 76.5%
- viability, T/C [17]: 89.2%
- viability, T/C [18]: 75.8%
- viability, T/C [19]: 73.4%
- viability, T/C [20]: 76.4%
- viability, T/C [21]: 71%
- viability, T/C [22]: 64.4%
- viability, T/C [23]: 63.4%
- viability, T/C [24]: 60.9%
- viability, T/C [25]: 65.4%
- viability, T/C [26]: 67%
- viability, T/C [27]: 64%
- viability, T/C [28]: 57.9%
- viability, T/C [29]: 54.9%
- viability, T/C [30]: 56.5%

SMILES: CC1COCCN1c1cc(-c2ccnn2C)c2ccnc(-c3ccn[nH]3)c2n1 (stereo not given) + CC(CO)NC(=O)c1cc(-c2ccc(Cl)cc2)nn(-c2cnn(C)c2)c1=O
- IC50 (second compound 0.1 µM): 81.3 nM
- IC50 (second compound 0.316 µM): 65 nM
- IC50 (second compound 1 µM): 67.1 nM
- IC50 (second compound 3.16 µM): 36.7 nM
- IC50 (second compound 10 µM): 22.5 nM
- viability, T/C (second compound 0.1 µM, first compound 0.00316 µM): 97%
- viability, T/C (second compound 0.1 µM, first compound 0.01 µM): 110%
- viability, T/C [1]: 75.2%
- viability, T/C [2]: 44.6%
- viability, T/C [3]: 29.7%
- viability, T/C [4]: 18.6%
- viability, T/C (second compound 0.316 µM, first compound 0.00316 µM): 88.6%
- viability, T/C (second compound 0.316 µM, first compound 0.01 µM): 102%
- viability, T/C [7]: 72.7%
- viability, T/C [8]: 36.6%
- viability, T/C [9]: 26.4%
- viability, T/C [10]: 21.6%
- viability, T/C (second compound 1 µM, first compound 0.00316 µM): 88.7%
- viability, T/C (second compound 1 µM, first compound 0.01 µM): 86.6%
- viability, T/C [13]: 72.8%
- viability, T/C [14]: 37.7%
- viability, T/C [15]: 24.1%
- viability, T/C [16]: 20.4%
- viability, T/C (second compound 3.16 µM, first compound 0.00316 µM): 75.9%
- viability, T/C (second compound 3.16 µM, first compound 0.01 µM): 79%
- viability, T/C [19]: 51%
- viability, T/C [20]: 31.1%
- viability, T/C [21]: 26.7%
- viability, T/C [22]: 18.7%
- viability, T/C (second compound 10 µM, first compound 0.00316 µM): 62.6%
- viability, T/C (second compound 10 µM, first compound 0.01 µM): 63.7%
- viability, T/C [25]: 43.9%
- viability, T/C [26]: 29%
- viability, T/C [27]: 24.8%
- viability, T/C [28]: 20.1%

SMILES: COc1ccc([C@@H](O)c2cc(-c3ncnc4cc(N5CCOCC5)ccc34)c(F)cc2Cl)nn1 + CC(CO)NC(=O)c1cc(-c2ccc(Cl)cc2)nn(-c2cnn(C)c2)c1=O
- IC50 (second compound 0.1 µM): > 10000 nM
- IC50 (second compound 0.316 µM): > 10000 nM
- IC50 (second compound 1 µM): > 10000 nM
- IC50 (second compound 3.16 µM): > 10000 nM
- IC50 (second compound 10 µM): > 10000 nM
- viability, T/C [1]: 99.4%
- viability, T/C [2]: 110%
- viability, T/C [3]: 90.2%
- viability, T/C [4]: 81.8%
- viability, T/C [5]: 78.5%
- viability, T/C [6]: 66.5%
- viability, T/C [7]: 89.4%
- viability, T/C [8]: 93.4%
- viability, T/C [9]: 96.8%
- viability, T/C [10]: 76.4%
- viability, T/C [11]: 71.6%
- viability, T/C [12]: 59.5%
- viability, T/C [13]: 88.8%
- viability, T/C [14]: 88.7%
- viability, T/C [15]: 91.6%
- viability, T/C [16]: 70.6%
- viability, T/C [17]: 59.5%
- viability, T/C [18]: 60.1%
- viability, T/C [19]: 75.2%
- viability, T/C [20]: 71.1%
- viability, T/C [21]: 68.3%
- viability, T/C [22]: 60%
- viability, T/C [23]: 63.6%
- viability, T/C [24]: 51.8%
- viability, T/C [25]: 70.7%
- viability, T/C [26]: 65.5%
- viability, T/C [27]: 63.8%
- viability, T/C [28]: 56.1%
- viability, T/C [29]: 55%
- viability, T/C [30]: 55.8%

SMILES: O=C(C=Cn1cnc(-c2cc(C(F)(F)F)cc(C(F)(F)F)c2)n1)NNc1cnccn1 + CC(CO)NC(=O)c1cc(-c2ccc(Cl)cc2)nn(-c2cnn(C)c2)c1=O
- IC50 (second compound 0.1 µM): 123 nM
- IC50 (second compound 0.316 µM): 138 nM
- IC50 (second compound 1 µM): 135 nM
- IC50 (second compound 3.16 µM): 96.2 nM
- IC50 (second compound 10 µM): 125 nM
- viability, T/C (second compound 0.1 µM, first compound 0.00949 µM): 83.2%
- viability, T/C (second compound 0.1 µM, first compound 0.03 µM): 77.4%
- viability, T/C (second compound 0.1 µM, first compound 0.0949 µM): 51.8%
- viability, T/C (second compound 0.1 µM, first compound 0.3 µM): 34.9%
- viability, T/C (second compound 0.1 µM, first compound 0.949 µM): 17.8%
- viability, T/C (second compound 0.1 µM, first compound 3 µM): 11.8%
- viability, T/C (second compound 0.316 µM, first compound 0.00949 µM): 75.7%
- viability, T/C (second compound 0.316 µM, first compound 0.03 µM): 87.5%
- viability, T/C (second compound 0.316 µM, first compound 0.0949 µM): 53.8%
- viability, T/C (second compound 0.316 µM, first compound 0.3 µM): 33.5%
- viability, T/C (second compound 0.316 µM, first compound 0.949 µM): 19.8%
- viability, T/C (second compound 0.316 µM, first compound 3 µM): 12.6%
- viability, T/C (second compound 1 µM, first compound 0.00949 µM): 82.3%
- viability, T/C (second compound 1 µM, first compound 0.03 µM): 76.4%
- viability, T/C (second compound 1 µM, first compound 0.0949 µM): 58%
- viability, T/C (second compound 1 µM, first compound 0.3 µM): 31.1%
- viability, T/C (second compound 1 µM, first compound 0.949 µM): 23.1%
- viability, T/C (second compound 1 µM, first compound 3 µM): 14.2%
- viability, T/C (second compound 3.16 µM, first compound 0.00949 µM): 69.1%
- viability, T/C (second compound 3.16 µM, first compound 0.03 µM): 65%
- viability, T/C (second compound 3.16 µM, first compound 0.0949 µM): 50.7%
- viability, T/C (second compound 3.16 µM, first compound 0.3 µM): 27.2%
- viability, T/C (second compound 3.16 µM, first compound 0.949 µM): 19%
- viability, T/C (second compound 3.16 µM, first compound 3 µM): 12.8%
- viability, T/C (second compound 10 µM, first compound 0.00949 µM): 62%
- viability, T/C (second compound 10 µM, first compound 0.03 µM): 61.8%
- viability, T/C (second compound 10 µM, first compound 0.0949 µM): 57.7%
- viability, T/C (second compound 10 µM, first compound 0.3 µM): 31.3%
- viability, T/C (second compound 10 µM, first compound 0.949 µM): 24.8%
- viability, T/C (second compound 10 µM, first compound 3 µM): 11.4%
